The subject of one data set is ileal organoids. In words: IsoLG adduct production in cultured ileal organoids (enteroids). The format is cell-based. As to conditions: 1 mmol/L, 3 days, vs vehicle, FIG. 4C. The method, then:
(§1) Albumin (Exocell), apoAI (Mybiosource), sphingosine-1 phosphate (S1P) (Mybiosource) and VEGF-C levels (Mybiosource) were measured by ELISA. Albuminuria was measured as urine albumin-to-creatinine ratio (ACR) (Nephrat II, Exocell) and QuantiChrom™ Creatinine Assay Kit (Bioassay Systems), respectively. Plasma and lymph total cholesterol and triglycerides were measured enzymatically (Cliniqa). HDL and LDL fractions were isolated from plasma and lymph by density-gradient ultracentrifugation after adjustment with potassium bromide. Lipoprotein particle size was evaluated by NMR methodology (Liposcience). Colorimetric assays were used to measure protein (BCA, ThermoFisher). Lipoproteins in plasma and lymph were separated by size-exclusion chromatography (SEC) using an Akta Pure fast-protein liquid chromatography (FPLC) system (GE Healthcare). Total IsoLG-protein adduct by LC/MS was measured as IsoLG-lysine after complete proteolytic digestion of lymph samples.
Intact perfused intestine was used to generate ileal organoids. Cultured ileal organoids were incubated in medium with or without indoxyl sulfate (1 mmol/L, Sigma) for 3 days. Total protein was extracted for quantitation of IsoLG.

The test system of data set [1] is Primary adult dermal lymphatic endothelial cells (LECs). In words: Cultured lymphatic endothelial cells (LECs) exposed to IsoLG-modified apoAI. The format is cell-based. As to conditions: apoAI 10 μg/ml, IsoLG 1 μM/L, 18 h, vs unmodified apoAI. The method, then: Primary adult dermal lymphatic endothelial cells (LECs) (HMVEC-DLyAd, Lonza) were cultured with conditioned growth medium (Lonza). Cells at passage 5-6 with ˜70% confluence were starved in serum-free medium overnight, then incubated with unmodified or IsoLG-modified apoAI (apoAI: 10 μg/ml, IsoLG: 1 μM/L) for 18 h. […] Quantification of eNOS (Nos3) and β-actin (ACTB) mRNA was performed by RT-PCR and production of superoxide was assessed by high-performance liquid chromatography.

For a further data set, the system named is THP-1 cells. In words: VEGFC mRNA in THP-1 derived macrophages. It is filed as cell-based. The conditions noted are these: apoAI 10 μg/ml, IsoLG 1 μM/L, 48 h, vs unmodified apoAI, FIG. 6D. How it is done:
THP-1 cells were plated and differentiated into macrophages by […] containing 10% FBS and 50 ng/ml phorbol 12-myristate 13-acetate for 3 days. Cells were incubated with unmodified or IsoLG-modified apoAI (apoAI: 10 μg/ml, IsoLG: 1 μM/L) for 48 h. VEGFC mRNA was assessed by RT-PCR.

In data set [2] the test system is isolated mesenteric lymphatic vessels. In words: Lymphatic dynamics ex vivo, isolated mesenteric lymphatic vessels. How it is done:
Mesenteric lymphatic vessels were collected and mounted in a perfusion chamber. Chambers were placed on inverted microscopes equipped with a digital image capture system (IonOptix) to record pre-valve intraluminal diameters and frequency of contractions. Vessels were warmed to 37° C., pressurized to 0.5 mmHg using a column of Krebs buffer, and allowed to equilibrate (20-60 minutes). Viable vessels were then pressurized in a stepwise manner to a constant pressure of 3.5 mmHg, then exposed to purified apoAI or modified apoAI using 1 molar equivalent synthetic IsoLG or vehicle (DMSO). Fresh Krebs buffer was circulated to facilitate wash out. Next vessels were exposed to IsoLG-modified apoAI. After each challenge, lumen diameters were allowed to plateau (40-60 minutes).

The subject of a further data set is Sprague Dawley rats. As to conditions: rat, in vivo, ip, 125 mg/kg. The method, then:
Adult male Sprague Dawley rats (200-225 g, Charles River) were housed under a 12-h light/dark cycle with free access to normal rat chow and water. Kidney injury was induced by a single injection of puromycin […] (PAN) (125 mg/kg body weight, i.p.) while saline-injected rats served as controls (Cont). Eight days after injection, rats were sacrificed and blood, urine, and tissues were harvested. We also studied adult male (12 weeks old) Nphs1-hCD25 transgenic (NEP25, C57 bl/6 background) mice expressing human CD25 on podocytes can be selectively injured by injection of recombinant immunotoxin, anti-Tac (Fv)-PE38 (LMB2, 1 ng/g BW, i.v. generously provided by Dr. Ira Pastan) that results in proteinuria. These and wild type control mice were housed under normal conditions with free access to regular rodent chow and water. Two weeks after LMB2, mice were sacrificed and blood, urine and tissues harvested. All animal procedures were approved by the Institutional Animal Care and Use Committee at Vanderbilt University.
Mesenteric lymph was collected in a subset of conscious rats following cannulation of the mesenteric lymph duct. The rats were placed in Bollman cages in a temperature- and humidity-controlled incubator and lymph collected hourly for at least 3 h.
as §1

Structures can show the parent of a compound that is named as a salt.

As for `O=S(=O)(O)Oc1c[nH]c2ccccc12` [indoxyl sulfate], the IsoLG adduct production result with ileal organoids was “significantly increased”.
As to “IsoLG-apoAI: purified apoAI modified using 1 molar equivalent synthetic IsoLG”, the “production of ROS” value in data set [1] (FIG. 5A) is on record as “significantly greater production of ROS”. The “eNOS (Nos3) gene expression” value in data set [1] (FIG. 5B) was “increased Nos3”. In the data set with THP-1 cells, the “VEGFC mRNA expression” value was “significantly increased”. The “end-systolic diameter (ESD)” value in data set [2] (FIG. 5D) was “failed to significantly alter”. In addition, in data set [2] (FIG. 5E), the “end-diastolic diameter (EDD)” value was “significantly decreased”. The amplitude of contraction entry in data set [2] (FIG. 5F) was “significantly reduced”. In addition, in data set [2] (vs unmodified apoAI, FIG. 5C), the frequency of contractions entry is on record as “increased frequency of contractions”.
Turning to `CN(C)c1ncnc2c1ncn2[C@@H]1O[C@H](CO)[C@@H](N)[C@H]1O` [PAN, puromycin aminoglycoside], in the data set with Sprague Dawley rats, the “ACR (albumin/creatinine concentration ratio)” value worked out at 126.652 ± 13.283 mg/mg, the “Plasma Albumin” value was determined as 350.7 ± 27.3 mg/dL, the “Plasma Cholesterol” value is 236.6 ± 36.8 mg/dL and the “Plasma Triglyceride” value was found to be 132.1 ± 19.2 mg/dL.

For the origin of these results see patent US20230355549A1, “METHOD OF PREVENTING KIDNEY INJURY DISRUPTION OF INTESTINAL LYMPHATICS” (Vanderbilt University, priority 2020, published 2023).
